# Measured values reported in a melting point compilation (Tetko et al.).
row,melting point [°C],Compound
1,345,COc1cccc2c1C(=O)c1c(O)c3c(c(O)c1C2=O)CC(O)(C(=O)CO)CC3OC1CC(N)C(O)C(C)O1 (stereo not given)
2,166,O=C(O)c1cc(Cl)c(Cl)cc1Cl
3,32.5,CC(=O)NCCSC(C)=O
4,176 to 178,O=C(NCOC(=O)c1ccc(OCNC(=O)c2ccccc2)cc1)c1ccccc1
5,135 to 137,CCOC(=O)c1ccc(NC(=O)C(F)(F)C(F)(F)C(F)(F)C(F)(F)C(F)(F)C(F)(F)C(F)(F)C(F)(F)F)cc1
6,112 to 115,COC(=O)c1[nH]c2ccccc2c1C(=O)OC
7,-34,BrCCCCCBr
8,88 to 90,O=C1OC(c2ccccc2)Cc2ccccc21 (stereo not given)
9,63.3,CCCCCCCCCCCCCCCCCCCO
10,237,CC(CCC(=O)O)C1CCC2C3C(=O)CC4CC(=O)CCC4(C)C3CC(=O)C12C (stereo not given)
11,194 to 196,Nc1cccnc1[N+](=O)[O-]
12,209 to 210,N#Cc1ccc(NC(N)=S)cc1
13,196,O=[N+]([O-])c1cccc(NN=Cc2ccccc2)c1
14,223 to 225,O=C1Nc2ccccc2C=NC2CCCCC2N=Cc2ccccc2NC1=O (stereo not given)
15,185 to 187,C[C@]12CCC(=O)C=C1CC[C@@H]1[C@@H]2CC[C@@]2(C)[C@H]1CC[C@]2(O)C#Cc1ccccc1
16,228,N#C/C(=C\c1cccnc1)c1nc2ccccc2[nH]1
17,-26,FC(F)(F)c1ccc(Cl)cc1Cl
18,58,COc1c(Cl)cccc1[N+](=O)[O-]
19,-1,CC(Cl)C(C)(C)C (stereo not given)
20,-47,CCCCCCCCCC(C)C
21,70 to 73,CC(C)[C@@H]1COC(=O)N1
22,38,CCN1C(=O)CSC1=S
23,172,CC(=O)C1CCC2C3CCC4=CC(=O)CCC4(C)C3C(=O)CC12C (stereo not given)
24,115 to 119,NC(=O)[C@@H]1CCCC[C@@H]1O (relative stereo)
25,53,COc1ccc(C=O)c(C)c1C
26,286 to 291,CC(C)(C)OC(=O)N1Cc2[nH]c3ccccc3c2C[C@H]1C(=O)O

row,melting point [°C],Compound
1,219 to 221,Oc1ccc(C2(c3ccc(O)cc3)CC3CC2C2CCCC32)cc1 (stereo not given)
2,43,CCCCCCCCCCCCCC(=O)CC
3,65 to 69,O=C1CCC2C3CCC(=O)C3C12 (stereo not given)
4,254,O=C1NN=C(C(F)(F)F)C1=NNc1cccc([N+](=O)[O-])c1
5,149,Clc1n[nH]c2ccccc12
6,202 to 203,Nc1ncnc2c1ncn2CC(O)CO (stereo not given)
7,55,N#Cc1ccccc1I
8,130,C1#CCOCc2ccccc2COCC#CCOCc2ccccc2COC1
9,294,Cn1c(=O)c(C2=NNC(=O)C2=NNc2ccncc2)c(O)c2ccccc21
10,32,COc1ccc(N=C=O)c(OC)c1
11,204,COc1cc2ccc(=O)oc2cc1O
12,183 to 185,N#Cc1c(N)oc(-c2ccco2)c1-c1ccco1
13,161 to 163,OC[C@H]1O[C@@H](n2cnc3c(Cl)ncnc32)[C@H](O)[C@@H]1O
14,149,COc1ccc(C(=O)O)c(C(F)(F)F)c1
15,132,CCOC(=O)C(C)C(=O)CC(O)CC1CC=C(C)C1(C)C (stereo not given)
16,161,COc1cc(C=C(S)C(=O)O)ccc1O
17,60,FC(F)(F)C(I)(C(F)(F)F)C(F)(F)F
18,96.5,c1ccc(C2=NCCN2)cc1
19,198,CCOc1ccc(C(=O)O)cc1
20,45 to 46,Fc1ncccc1I
21,120 to 124,OC1OC(C2COC3(CCCCC3)O2)C2OC3(CCCCC3)OC12 (stereo not given)
22,110,Nc1ccc(N)nc1
23,136 to 138,O=[N+]([O-])c1ccc(Oc2c(Cl)cccc2Cl)c(Cl)c1
24,-117,FC(F)C(F)(F)Cl
25,103 to 104,O=Cc1csc(-c2cccc(Cl)c2)n1
26,240,N#C/C(=N/Nc1ccc(Cl)cc1)c1nc(-c2ccc(Cl)cc2)cs1

row,melting point [°C],Compound
1,57,CSc1ccc(N)cc1C(F)(F)F
2,166 to 168,CC(C)(C)OC(=O)c1n[nH]c2nc(F)ccc12
3,224,O=C(Nc1cccc2ccccc12)C(C(F)(F)F)C(F)(F)F
4,128,C=C(C)C(=O)Nc1ccc(Cl)c(Cl)c1
5,136,NC(=S)c1ccccn1
6,-75.5,C=Cc1ccccc1CC
7,117,O=C(CCc1ccccc1)NNc1ccccc1
8,240,O=C(O)CCc1ccc2c(c1)NC(=O)CC2
9,137 to 138,CCOC(=O)C(ON=C(c1cc2ccccc2o1)c1cc2ccccc2o1)C(=O)OCC
10,226,CCOc1ccc2nc3cc(N)ccc3c(N)c2c1
11,133,CN(C)c1ccc(/C=C(/C#N)c2nc(-c3ccc(Cl)cc3)cs2)cc1
12,121,Cc1cc2c(o1)-c1c(oc3c(Br)cc(Br)cc13)CCC2C (stereo not given)
13,38 to 41,CCOC(=O)c1cc(-c2cccs2)n(C)n1
14,189 to 190,O=C(O)c1ccc(-n2ccc(C(F)(F)F)n2)cc1
15,100,O=C(C=NNc1ccccc1)c1ccc(C(=O)C=NNc2ccccc2)c([N+](=O)[O-])c1
16,74,CN(C)c1ccc(C#N)cc1
17,183,COc1cc(/C=C/C(=O)CC(=O)/C=C/c2ccc(O)c(OC)c2)ccc1O
18,125,O=C(Nc1ccc([N+](=O)[O-])cc1[N+](=O)[O-])C(F)(F)C(F)(F)C(F)(F)C(F)(F)C(F)(F)C(F)(F)C(F)(F)C(F)(F)F
19,-24,CNCc1ccccc1
20,133,CCCc1nn(-c2ccccc2)c(=O)n1C(N)=O
21,173,N#C/C(=N/Nc1cccc(C(F)(F)F)c1)C(=O)c1cccs1
22,92.5,CCOCOc1ccc(C(=O)Nc2cccc(Cl)c2Cl)cc1
23,213,O=[N+]([O-])c1ccc(-c2nn3c(C(F)(F)F)nnc3s2)cc1
24,107 to 110,CCCc1c(C(=O)O)cnn1-c1ccccc1
25,225,O=[N+]([O-])c1ccc(C2Nn3c(nnc3-c3ccccc3)S2)cc1 (stereo not given)
26,71 to 76,CC(C)(C)OC(=O)NC(Cc1cccs1)C(=O)O (stereo not given)

row,melting point [°C],Compound
1,122,Oc1ccc(OCc2ccccc2)cc1
2,118 to 122,CCOC(=O)c1c(SC)nn2c(=O)n(Nc3ccccc3)cnc12
3,186,O=[N+]([O-])c1ccc(/C=C/c2ccccc2O)c([N+](=O)[O-])c1
4,177,COc1ccc(-c2nn3c(C)nnc3s2)cc1
5,124,CCCN(CCC)c1c([N+](=O)[O-])cc(C(F)(F)F)c(N)c1[N+](=O)[O-]
6,31,CCCCCCCCCCC(=O)CC
7,69.5,S=C=Nc1ccc(Cl)c(Cl)c1Cl
8,273 to 275,Nc1c([N+](=O)[O-])cnc2ccccc12
9,260,C=CC=C(C=C1C(=O)NN=C1c1c(O)c2ccccc2n(C)c1=O)C(Cl)=CC
10,80 to 128,CCCCOc1ccc(/C=N/c2ccc(C(C)=O)cc2)cc1
11,119 to 120,COc1ccc(C(=O)C=Cc2ccc(-c3ccccc3[N+](=O)[O-])o2)cc1OC
12,101,CC(C)(C)c1csc(N)n1
13,46 to 47,COc1ccc(C(=O)Cl)cc1OC1CCCC1
14,181,Cc1c(NC(=O)C(C)N(C)C)c(=O)n(-c2ccccc2)n1C (stereo not given)
15,62,Ic1ccc(OCc2ccccc2)cc1
16,77 to 79,O=[N+]([O-])c1ccccc1N1CCCCC1
17,123 to 126,O=C(CBr)c1ccc(-c2ccccn2)s1
18,212 to 213,O=C(O)c1ccc(C#Cc2ccccc2)o1
19,150 to 152,Cn1nc(-c2ccc(Cl)cc2)cc1N
20,42 to 43,FC(F)C(F)(F)C(F)(F)C(F)(F)C(F)(F)C(F)(F)C(F)(F)C(F)(F)C(F)(F)C(F)F
21,103,CC(O)C(NC(=O)OCc1ccccc1)C(=O)O (stereo not given)
22,140 to 142,Cc1nc2ccccn2c1C(=O)O
23,100,O=[N+]([O-])c1cc(O)c(Cl)cc1Cl
24,128 to 130,NC(=S)CS(=O)(=O)Cc1ccco1
25,47 to 49,OCc1cc2cccnc2s1

row,Compound,melting point [°C]
1,CNc1ccccc1,-57
2,Brc1cc(Br)c(Oc2ccc(Br)c(Br)c2)c(Br)c1,86 to 87
3,C=CC(=O)OCCCCCCCC(C)C,-100
4,Cc1ccc(Cl)cc1C,-6
5,O=C(O)C(O)(c1ccccc1)C1CCCCC1 (stereo not given),163 to 164
6,O=[N+]([O-])c1cc(CCBr)c([N+](=O)[O-])cc1CCBr,123
7,O=C(CBr)c1cccc(Cl)c1,39 to 41
8,C=CCC1(C2C=CCC2)C(=O)NC(=O)NC1=O (stereo not given),140
9,CC(=O)OC1CCC2C3CCC4=CC(O)CCC4(C)C3CCC12C (stereo not given),96
10,FC(Cl)(Cl)c1ccccc1,-26.8
11,CCOP(=O)(Cc1ccc(N)cc1)OCC,93
12,c1ccc2c(c1)CC1c3ccccc3CCN1C2 (stereo not given),85
13,CCCCCCCCCF,1
14,CCN(CC)C(=O)C(Cl)=C(C)OP(=O)(OC)OC,-45
15,Clc1cc2oc3c(Cl)cc(Cl)c(Cl)c3c2cc1Cl,237
16,O=NN1CCCC1c1cccnc1 (stereo not given),47
17,CCOC(=O)C(O)(c1ccc(N)c(OC)c1)C(F)(F)F (stereo not given),97 to 99
18,CN(N=Cc1ccc(F)cc1)P(=O)(N1CC1)N1CC1,106
19,O=C1CCC2(O)C3Cc4ccc(O)c5c4C2(CCN3CC2CC2)C1O5 (stereo not given),169
20,COc1ccc(CNc2ccc([N+](=O)[O-])c3nonc23)cc1,176 to 180
21,CC(=O)OC1CC[C@H]2[C@@H]3[C@H](C)CC4CC(=O)CC[C@]4(C)[C@H]3CC[C@]12C (stereo not given in full),142
22,O=C1NC(=S)NC(=O)C1=Cc1ccc(Br)o1,215
